The source of these data is patent US11337971B2, “Dopamine D3 receptor selective antagonists/partial agonists and uses thereof” (THE UNITED STATES OF AMERICA, AS REPRESENTED BY THE …, priority 2018, dated 2022).

The target in one data set is human D2R (Homo sapiens (Human), UniProt P14416). In words: Radioligand competition binding, [3H]N-methylspiperone, HEK293 membranes expressing human D2R. Particulars: read-out: D2R Ki ± SEM. The method in brief: (§1)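 HEK293 membranes (10 μg protein) incubated 1 h at room temperature in EBSS with 0.2 mM sodium metabisulfite, 0.4 nM [3H]N-methylspiperone and compound (10 μM to 10 pM, triplicate). Nonspecific binding defined with 10 μM butaclamol; GF/B filtration.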

A further data set deals with human D3R (Homo sapiens (Human), UniProt P35462). Kind of data set: Radioligand competition binding, [3H]N-methylspiperone, HEK293 membranes expressing human D3R. Particulars: for Ki: read-out: D3R Ki ± SEM; for D2/D3: ratio of Ki values. Put shortly:
as §1

The target in the next data set is human dopamine D3R (Homo sapiens (Human), UniProt P35462). In words: D3R mitogenesis assay: stimulation or inhibition of quinpirole-stimulated mitogenesis in CHO cells. It counts as cell-based. To be noted: Table 2b; inhibition of quinpirole-stimulated mitogenesis; read-out: Antagonist IC50 ± S.E.M.
The target in the next data set is 5-HT1A (Homo sapiens (Human), UniProt P08908). Kind of data set: 5-HT1A [3H]-8-OH-DPAT binding. Particulars: Table 3b; read-out: 5-HT1A [3H]-8-OH-DPAT Ki ± SEM.
A further data set has as its target 5-HT2A (Homo sapiens (Human), UniProt P28223). In words: 5-HT2A [125I]DOI binding. To be noted: Table 3b; read-out: 5-HT2A [125I]DOI Ki ± SEM.
A further data set has as its target 5-HT2C (Homo sapiens (Human), UniProt P28335). Kind of data set: 5-HT2C [125I]DOI binding. To be noted: Table 3b; read-out: 5-HT2C [125I]DOI Ki ± SEM.
Data set [1] can be described thus: Phase I metabolic stability in rat liver microsomes. Particulars: phase I metabolic stability in rat liver microsomes. It counts as in vitro ADME. From the text: Rat Liver Microsome Metabolic Stability: Test compounds including 3-F analogues (C4a, C4b, C5a, C5b) and 29, 19 as well as the R-, S-enantiomers of C4a, C5a, 29 and 19 were screened for phase I metabolic stability in rat liver microsomes.

Read-outs that look alike come from different tables or passages of the source.

human D3R, sequence (P35462 whole entry): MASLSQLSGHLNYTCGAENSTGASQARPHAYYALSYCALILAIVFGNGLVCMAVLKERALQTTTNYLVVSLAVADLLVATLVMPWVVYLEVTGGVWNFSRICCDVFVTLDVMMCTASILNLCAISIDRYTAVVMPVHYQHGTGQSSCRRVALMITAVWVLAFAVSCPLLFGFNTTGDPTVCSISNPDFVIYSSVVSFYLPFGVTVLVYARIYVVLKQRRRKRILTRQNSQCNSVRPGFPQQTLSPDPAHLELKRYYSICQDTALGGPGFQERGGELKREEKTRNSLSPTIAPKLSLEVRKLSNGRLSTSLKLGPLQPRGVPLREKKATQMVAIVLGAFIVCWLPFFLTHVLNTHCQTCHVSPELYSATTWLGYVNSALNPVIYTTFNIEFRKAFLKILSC
human D2R, sequence (P14416 whole entry): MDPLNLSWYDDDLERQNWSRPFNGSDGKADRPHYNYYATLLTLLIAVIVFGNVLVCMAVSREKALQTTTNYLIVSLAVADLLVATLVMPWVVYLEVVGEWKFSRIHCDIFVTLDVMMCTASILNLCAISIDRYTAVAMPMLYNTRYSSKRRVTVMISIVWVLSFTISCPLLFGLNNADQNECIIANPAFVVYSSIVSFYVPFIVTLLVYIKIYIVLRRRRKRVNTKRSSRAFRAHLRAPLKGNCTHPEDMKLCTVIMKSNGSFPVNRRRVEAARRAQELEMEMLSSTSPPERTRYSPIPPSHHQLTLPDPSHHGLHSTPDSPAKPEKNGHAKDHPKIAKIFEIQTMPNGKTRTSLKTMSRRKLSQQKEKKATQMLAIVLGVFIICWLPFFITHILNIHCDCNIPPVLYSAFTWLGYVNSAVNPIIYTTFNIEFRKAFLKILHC
human dopamine D3R, sequence (P35462 whole entry): as the sequence (P35462 whole entry) above
5-HT2C, sequence (P28335 33-458, species assumed): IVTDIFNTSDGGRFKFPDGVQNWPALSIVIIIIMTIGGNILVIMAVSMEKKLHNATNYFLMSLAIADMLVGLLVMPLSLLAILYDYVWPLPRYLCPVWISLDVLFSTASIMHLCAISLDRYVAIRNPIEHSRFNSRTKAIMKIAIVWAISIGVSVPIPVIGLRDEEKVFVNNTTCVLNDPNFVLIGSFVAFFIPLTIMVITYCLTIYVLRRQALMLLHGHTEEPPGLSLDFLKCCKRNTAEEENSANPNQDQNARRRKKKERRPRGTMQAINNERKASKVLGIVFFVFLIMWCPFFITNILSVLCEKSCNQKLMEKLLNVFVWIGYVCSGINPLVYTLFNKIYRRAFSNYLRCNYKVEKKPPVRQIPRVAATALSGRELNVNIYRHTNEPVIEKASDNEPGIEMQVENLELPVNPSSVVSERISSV
5-HT1A, sequence (P08908 whole entry, species assumed): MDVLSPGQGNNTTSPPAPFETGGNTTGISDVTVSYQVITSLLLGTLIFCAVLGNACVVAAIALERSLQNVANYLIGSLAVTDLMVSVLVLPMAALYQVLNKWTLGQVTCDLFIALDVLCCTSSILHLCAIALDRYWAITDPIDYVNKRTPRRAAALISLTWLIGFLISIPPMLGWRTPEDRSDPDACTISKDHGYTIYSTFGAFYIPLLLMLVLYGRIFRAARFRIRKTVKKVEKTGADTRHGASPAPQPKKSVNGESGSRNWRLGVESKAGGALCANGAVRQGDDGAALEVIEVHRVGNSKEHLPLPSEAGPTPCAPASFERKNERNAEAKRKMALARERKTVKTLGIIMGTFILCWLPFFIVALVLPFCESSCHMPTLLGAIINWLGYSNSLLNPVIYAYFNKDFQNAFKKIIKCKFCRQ
5-HT2A, sequence (P28223 whole entry, species assumed): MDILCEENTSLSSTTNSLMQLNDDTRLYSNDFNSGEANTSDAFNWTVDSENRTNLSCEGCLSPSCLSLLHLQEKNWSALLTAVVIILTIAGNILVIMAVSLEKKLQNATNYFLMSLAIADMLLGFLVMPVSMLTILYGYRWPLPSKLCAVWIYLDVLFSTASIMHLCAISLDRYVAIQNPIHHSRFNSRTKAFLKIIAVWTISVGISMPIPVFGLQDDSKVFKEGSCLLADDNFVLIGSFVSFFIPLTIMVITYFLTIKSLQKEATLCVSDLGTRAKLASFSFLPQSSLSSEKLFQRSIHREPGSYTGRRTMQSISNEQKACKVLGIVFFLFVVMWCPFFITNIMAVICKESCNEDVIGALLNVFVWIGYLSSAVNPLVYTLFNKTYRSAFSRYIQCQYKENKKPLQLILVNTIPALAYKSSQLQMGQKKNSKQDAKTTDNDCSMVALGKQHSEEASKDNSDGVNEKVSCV

Regarding `CCc1cccc(N2CCN(CC(F)CCNC(=O)c3cc4ccccc4[nH]3)CC2)c1Cl` (racemic) [Compound C5a, N-(4-(4-(2-chloro-3-ethylphenyl)piperazin-1-yl)-3-fluorobutyl)-1H-indole-2-carboxamide], the Ki at human D2R (Table 1B, [3H]-N-methylspiperone competition, D2LR, 96-well plates) amounted to 124 ± 15.8 nM; at human D2R (Table 1C) it was 247 ± 57.4 nM; at human D3R (Table 1B, [3H]-N-methylspiperone competition, 96-well plates) it was 0.482 ± 0.15 nM; on human D3R (Table 1C), 0.756 ± 0.185 nM; at 5-HT1A, 910 ± 120 nM; on 5-HT2A, 620 ± 120 nM. Also, at 5-HT2C, the inhibition constant (Ki) is 580 ± 160 nM. Besides, the “D3R selectivity over D2R (D2R/D3R)” value at human D3R is 327 fold. The D2/D3 turned out to be 257 at human D3R (Table 1B) and 327 at human D3R (Table 1C). Also, the IC50 on human dopamine D3R worked out at 95 ± 31 nM. The “% intact/parent remaining” value in data set [1] is 38%.
